Experiment [1] concerns the target T1, DS-epi1 (truncated form, amino acid 23–775-HIS) (Homo sapiens, UniProt Q9UL01).
T1 construct: gene DSE; truncated, residues 23-775, HIS tag
The experiment is described as follows: DS-epi1 epimerase activity assay. The class given is biochemical.

Experiment [2] concerns the target T2, HSepi; heparan sulfate glucuronyl C-5 epimerase (GLCE) (Homo sapiens, UniProt O94923).
T2 sequence (O94923 29-617): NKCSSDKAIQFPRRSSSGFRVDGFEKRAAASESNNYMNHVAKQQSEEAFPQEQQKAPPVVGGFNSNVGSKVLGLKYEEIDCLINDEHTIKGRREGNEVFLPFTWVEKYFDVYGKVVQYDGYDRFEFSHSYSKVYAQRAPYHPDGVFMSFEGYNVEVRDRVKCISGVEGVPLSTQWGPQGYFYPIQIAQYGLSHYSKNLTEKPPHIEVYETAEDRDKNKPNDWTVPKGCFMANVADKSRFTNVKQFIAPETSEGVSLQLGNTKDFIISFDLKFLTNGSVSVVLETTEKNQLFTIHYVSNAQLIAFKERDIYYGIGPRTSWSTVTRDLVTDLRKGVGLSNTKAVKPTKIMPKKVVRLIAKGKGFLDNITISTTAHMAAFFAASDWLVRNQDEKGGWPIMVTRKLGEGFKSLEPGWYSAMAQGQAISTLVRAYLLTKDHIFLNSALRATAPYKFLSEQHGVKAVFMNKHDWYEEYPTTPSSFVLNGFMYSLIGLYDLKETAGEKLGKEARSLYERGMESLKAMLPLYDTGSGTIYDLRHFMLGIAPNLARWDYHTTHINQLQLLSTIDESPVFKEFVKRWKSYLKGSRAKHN
The experiment is described as follows: HSepi epimerase activity assay, lysate of transfected […]HEK. The class given is biochemical. As to conditions: read-out: % inhibition at 1,000 μM.

Usually IC50 stands for the point on the concentration scale where inhibition reaches its midpoint. Higher therefore signals a need for much substance. By inhibition is commonly meant the change of the read-out against control, counted positive when it falls.

The structures appear in SMILES notation.

Consider `CCCN(C)c1cc(-c2ccccc2)nc(SCc2cccc(C(=O)O)c2)n1` [compound 11, inhibitor 11], for which the IC50 in experiment [1] worked out at 16 µM. Further, the inhibition at 1000 µM in experiment [2] stood at 47%.
Compound `CN(c1cc(-c2ccccc2)nc(SCc2ccc(C(=O)O)o2)n1)C1CCCCC1` [compound 3, inhibitor 3] yielded an IC50 in experiment [1] of 12 µM. Further, the inhibition at 1000 µM in experiment [2] turned out to be 69%.

The record behind these values is paper PMC11101759, “Inhibitors of dermatan sulfate epimerase 1 decreased accumulation of glycosaminoglycans in mucopolysaccharidosis type I fibroblasts” (Glycobiology, 2024).
